Data: patent US20180093951A1, “PESTICIDALLY ACTIVE CAR[…] THIOCAR[…] DERIVATIVES” (Syngenta Participations AG, priority 2015, published 2018)

What was measured:
Spodoptera littoralis = Spodoptera littoralis (Egyptian cotton leaf worm) cotton leaf disc spray test; type: in vivo; conditions: foliar, 72 h, application rate of 200 ppm, L1 larvae, 3 days after infestation, read-out: control (at least one of mortality, anti-feedant effect, growth inhibition)
Method: Example B1: Spodoptera littoralis (Egyptian Cotton Leaf Worm)
Cotton leaf discs were placed on agar in 24-well microtiter plates and sprayed with aqueous test solutions prepared from 10,000 ppm DMSO stock solutions. After drying, the leaf discs were infested with five L1 larvae. The samples were assessed for mortality, anti-feedant effect, and growth inhibition in comparison to untreated samples 3 days after infestation. Control of Spodoptera littoralis by a test sample is when at least one of mortality, anti-feedant effect, and growth inhibition is higher than the untreated sample.

Plutella Xylostella = assay: Plutella xylostella (diamond back moth) artificial diet test; type: in vivo; conditions: 120 h, application rate of 200 ppm, L2 larvae, 5 days after infestation, read-out: effect in at least one of the two categories (mortality or growth inhibition)
Method: Example B2: Plutella Xylostella (Diamond Back Moth)
(§1) 24-well microtiter plates with artificial diet were treated with aqueous test solutions prepared from 10,000 ppm DMSO stock solutions by pipetting. After drying, the plates were infested with L2 larvae (10 to 15 per well). The samples were assessed for mortality and growth inhibition in comparison to untreated samples 5 days after infestation.
The following compounds gave an effect of at least 80% in at least one of the two categories (mortality or growth inhibition) at an application rate of 200 ppm: P1, P2, P3, P5, P10, P11, P14 and P20.

Diabrotica Balteata = assay: Diabrotica balteata (corn root worm) maize sprout test; type: in vivo; conditions: 96 h, application rate of 200 ppm, L2 larvae, 4 days after infestation, read-out: effect in at least one of the two categories (mortality or growth inhibition)
Method: Example B3: Diabrotica Balteata (Corn Root Worm)
as §1, with “Maize sprouts, placed on an agar layer in 24-well” for “24-well”, “plates” for “plates with artificial diet”, “spraying.” for “pipetting.”, “(6” for “(10”, “10” for “15”, “4” for “5”
The following compounds gave an effect of at least 80% in at least one of the two categories (mortality or growth inhibition) at an application rate of 200 ppm: P1, P2, P3, P4, P5, P10 and P14.

Tetranychus Urticae = assay: Tetranychus urticae (two-spotted spider mite) feeding/contact activity on bean leaf discs; type: in vivo; conditions: foliar, 192 h, application rate of 200 ppm, mixed population (mobile stages), 8 days after infestation
Method: Example B4: Tetranychus Urticae (Two-Spotted Spider Mite) (Feeding/Contact Activity)
Bean leaf discs on agar in 24-well microtiter plates were sprayed with aqueous test solutions prepared from 10′000 ppm DMSO stock solutions. After drying the leaf discs were infested with a mite population of mixed ages. The samples were assessed for mortality on mixed population (mobile stages) 8 days after infestation.

melting point [°C] | Structure (SMILES) | percent effect (mortality or growth inhibition) at 200 ppm (Plutella Xylostella) [%] | further results
179 to 180 | O=C(Nc1ccccc1C(F)(F)F)O/N=C/c1ccc(-c2ncn(-c3ccc(OC(F)(F)F)cc3)n2)cc1 |  | 
174 to 180 | O=C(Nc1ccccc1)O/N=C/c1ccc(-c2ncn(-c3ccc(OC(F)(F)F)cc3)n2)cc1 |  | 
179 to 182 | O=C(Nc1ccc(Cl)cc1Cl)O/N=C/c1ccc(-c2ncn(-c3ccc(OC(F)(F)F)cc3)n2)cc1 |  | 
183 to 184 | O=C(Nc1ccccc1Cl)O/N=C/c1ccc(-c2ncn(-c3ccc(OC(F)(F)F)cc3)n2)cc1 |  | 
182 to 183 | COc1ccccc1NC(=O)O/N=C/c1ccc(-c2ncn(-c3ccc(OC(F)(F)F)cc3)n2)cc1 |  | 
197 to 198 | O=C(Nc1cscc1Br)O/N=C/c1ccc(-c2ncn(-c3ccc(OC(F)(F)F)cc3)n2)cc1 |  | 
93 to 130 | CC(C)c1ccccc1NC(=O)O/N=C/c1ccc2c(c1)nc(-c1ccc(OC(F)(F)F)cc1)n2C |  | 
98 to 130 | CC(C)c1ccccc1NC(=O)O/N=C/c1ccc2nc(-c3ccc(OC(F)(F)F)cc3)n(C)c2c1 |  | 
68 to 124 | Cc1cccc(C)c1NC(=O)O/N=C/c1ccc2nc(-c3ccc(OC(F)(F)F)cc3)n(C)c2c1 |  | 
68 to 124 | Cc1cccc(C)c1NC(=O)O/N=C/c1ccc2c(c1)nc(-c1ccc(OC(F)(F)F)cc1)n2C |  | 
247 to 248 | Cc1cccc(C)c1NC(=O)O/N=C/c1ccc2c(c1)C(=O)N(c1ccc(OC(F)(F)F)cc1)C2=O |  | 
170 to 171 | CC/C(=N\OC(=O)Nc1ccccc1C(C)C)c1ccc(-c2ncn(-c3ccc(OC(F)(F)F)cc3)n2)cc1 |  | 
151 to 154 | CC/C(=N\OC(=O)Nc1ccccc1C(F)(F)F)c1ccc(-c2ncn(-c3ccc(OC(F)(F)F)cc3)n2)cc1 |  | 
 | CC(C)c1ccccc1NC(=O)O/N=C\c1ccc(-c2ncn(-c3ccc(OC(F)(F)F)cc3)n2)cc1 (single isomer, unassigned) [Compound P1, [(Z)-[4-[1-[4-(trifluoromethoxy)phenyl]-1,2,4-triazol-3-yl]phenyl]methyleneamino] N-(2-isopropylphenyl) carbamate] | ≥ 80 | percent control (mortality, anti-feedant effect or growth inhibition) at 200 ppm (Spodoptera littoralis): ≥ 80%; percent effect (mortality or growth inhibition) at 200 ppm (Diabrotica Balteata): ≥ 80%
 | CC(C)c1ccccc1NC(=O)O/N=C/c1ccc(-c2ncn(-c3ccc(OC(F)(F)F)cc3)n2)cc1 (single isomer, unassigned) [Compound P2, [(E)-[4-[1-[4-(trifluoromethoxy)phenyl]-1,2,4-triazol-3-yl]phenyl]methyleneamino] N-(2-isopropylphenyl) carbamate] | ≥ 80 | percent control (mortality, anti-feedant effect or growth inhibition) at 200 ppm (Spodoptera littoralis): ≥ 80%; percent effect (mortality or growth inhibition) at 200 ppm (Diabrotica Balteata): ≥ 80%
 | C/C(=N\OC(=O)Nc1ccccc1C(C)C)c1ccc(-c2ncn(-c3ccc(OC(F)(F)F)cc3)n2)cc1 [Compound P3] | ≥ 80 | percent effect (mortality or growth inhibition) at 200 ppm (Diabrotica Balteata): ≥ 80%
 | C/C(=N\OC(=O)Nc1ccccc1C(F)(F)F)c1ccc(-c2ncn(-c3ccc(OC(F)(F)F)cc3)n2)cc1 [Compound P4, [1-[4-[1-[4-(trifluoromethoxy)phenyl]-1,2,4-triazol-3-yl]phenyl]ethylideneamino]N-[2-(trifluoromethyl)phenyl]carbamate] |  | percent effect (mortality or growth inhibition) at 200 ppm (Diabrotica Balteata): ≥ 80%
 | C/C(=N\OC(=O)Nc1c(C)cccc1C)c1ccc(-c2ncn(-c3ccc(OC(F)(F)F)cc3)n2)cc1 [Compound P5] | ≥ 80 | percent control (mortality, anti-feedant effect or growth inhibition) at 200 ppm (Spodoptera littoralis): ≥ 80%; percent effect (mortality or growth inhibition) at 200 ppm (Diabrotica Balteata): ≥ 80%
 | CC/C(=N\OC(=O)Nc1c(C)cccc1C)c1ccc(-c2ncn(-c3ccc(OC(F)(F)F)cc3)n2)cc1 [Compound P10] | ≥ 80 | percent control (mortality, anti-feedant effect or growth inhibition) at 200 ppm (Spodoptera littoralis): ≥ 80%; percent effect (mortality or growth inhibition) at 200 ppm (Diabrotica Balteata): ≥ 80%
 | Cc1cccc(C)c1NC(=O)O/N=C/CCc1ccc(-c2ncn(-c3ccc(OC(F)(F)F)cc3)n2)cc1 [Compound P11] | ≥ 80 | 
 | Cc1cccc(C)c1NC(=O)O/N=C/c1ccc(-c2ncn(-c3ccc(OC(F)(F)F)cc3)n2)cc1 [Compound P14] | ≥ 80 | percent effect (mortality or growth inhibition) at 200 ppm (Diabrotica Balteata): ≥ 80%
 | Cc1cccc(C)c1NC(=O)O/N=C/c1ccc2sc(-c3ccc(OC(F)(F)F)cc3)nc2c1 [Compound P17] |  | percent control (mortality, anti-feedant effect or growth inhibition) at 200 ppm (Spodoptera littoralis): ≥ 80%
 | Cc1cc(NC(=O)O/N=C/c2ccc(-c3ncn(-c4ccc(OC(F)(F)F)cc4)n3)cc2)c(C(F)(F)F)o1 [Compound P19] |  | mortality at 200 ppm (Tetranychus Urticae): ≥ 80%
 | O=C(Nc1ccc(Cl)nc1)O/N=C/c1ccc(-c2ncn(-c3ccc(OC(F)(F)F)cc3)n2)cc1 [Compound P20] | ≥ 80 | percent control (mortality, anti-feedant effect or growth inhibition) at 200 ppm (Spodoptera littoralis): ≥ 80%; mortality at 200 ppm (Tetranychus Urticae): ≥ 80%
